Reference: patent US20240299560A1, “DEOXYCHOLIC ACID-PEPTIDE CONJUGATE HAVING ANTI-OBESITY ACTIVITY AND USE THEREOF” (CAREGEN CO, LTD., priority 2020, published 2024)
Where a SMILES comes first, the peptide text is derived from it. [ ]: non-standard residue; d: D form. The star is where a group is joined. ξ: configuration not given here. Deoxycholoyl = C[C@H](CCC(=O)*)[C@H]1CC[C@H]2[C@@H]3CC[C@@H]4C[C@H](O)CC[C@]4(C)[C@H]3C[C@H](O)[C@]12C; ξF = NC(Cc1ccccc1)C(=O)O; ξL = CC(C)CC(N)C(=O)O; ξK = NCCCCC(N)C(=O)O; ξNva = CCCC(N)C(=O)O

Tests used:
[1] = tested on: white adipose tissue; assay: Glycerol release (lipolysis) from cultured adipose tissue; type: cell-based, mice; settings: for glycerol release amount: 1 μM, adipose tissue
Protocol: Neutral fat stored in adipose tissue was decomposed into fatty acids and glycerol for energy production or cell signaling. Therefore, the lipolysis effect of neutral fat accumulated in the adipose tissue was confirmed by measuring the release amount of free glycerol.
Specifically, in female mice fed with a high-fat diet (Rodent Diet with 60% Kcal Fat, Research Diets, USA), a fat pad, which was white adipose tissue, was isolated, and each 400 mg of adipose tissue per well was placed in a 12-well plate, and then cultured for 48 hours in a culture medium (DMEM media serum free) to be stabilized. During the culture, the peptide conjugate was treated at concentrations of 1 μM, 10 μM, and 100 μM, and as a positive control group, 20 nM of TNFα was treated and cultured for 48 hours to obtain a supernatant, and the amount of glycerol was measured using a glycerol colorimetric assay kit (Cayman chemical, USA).
(§1) In order to compare the lipolysis effects in the case of treating the deoxycholic acid-peptide conjugate and the case of treating the deoxycholic acid or the peptide of SEQ ID NO: 1 alone, the amount of glycerol released from the adipose tissue was measured in the same manner as in Experimental Example 3-1. A group treated with TNF-α was used as a positive control group.

[2] = tested on: 3T3-L1 cells; assay: Oil red O staining of fat accumulation in differentiated adipocytes; type: cell-based; settings: 1 μM, 3T3-L1 adipocytes; for lipid accumulation amount: oil red O absorbance 510 nm
Protocol: 3T3-L1 cells as preadipocytes were purchased from the American Type Culture Collection (ATCC) and used in an experiment. 3T3-L1 was a cell line widely used to study the metabolic process of adipocytes, and as the differentiation of the cells was activated, fat accumulation in adipocytes was activated to induce obesity.
(§2) The preadipocytes 3T3-L1 were cultured in a DMEM containing 2% fetal bovine serum (FBS) under conditions of 37° C. and 5% CO2. The preadipocytes 3T3-L1 were dispensed in a 12-well plate at a density of 1×10^5 cells/well, and then further maintained for 2 days at a 100% confluency point. The preadipocytes were cultured for 2 days in a DMEM medium (hereinafter referred to as a ‘differentiation medium’) containing a differentiation ingredient (including 10 μg/ml insulin, 0.1 μM dexamethasone and 0.5 mM IBMX) and 10% FBS to induce the differentiation into adipocytes. After 48 hours of culture, the preadipocytes were cultured for 2 days in 10% FBS DMEM (hereinafter referred to as a ‘culture medium’) containing 1 μg/ml insulin. Thereafter, the culture medium was replaced with a 10% FBS DMEM culture medium every 2 days. During the induction of adipocytes differentiation, depending on a purpose of the experiment, a deoxycholic acid-peptide conjugate was treated or not in each culture medium at a concentration of 1 μM or 10 μM, and the differentiation degree of adipocytes was observed on day 7, when the differentiation was completed.
Specifically, the degree of differentiation of adipocytes induced in Preparation Example 1 was first confirmed under a microscope through oil red O staining, and for the staining degree of adipocytes, the degree of fat accumulated in the cells was calculated by measuring absorbance with a spectrophotometer at a wavelength of 510 nm. A group treated with a β3 adrenergic receptor agonist CL316243 or TNF-α was used as a positive control group.
as §1, with “fat accumulation inhibitory” for “lipolysis”, “degree” for “amount”, “differentiation of adipocytes and” for “glycerol released from”, “degree of lipid accumulation were” for “adipose tissue was”, “1-1.” for “3-1.”

[3] = Solubility in water, visual observation; type: physicochemical; settings: 1 mg in 90 μL distilled water
Protocol: Solubilities of the deoxycholic acid-peptide conjugate prepared in Example 2 and deoxycholic acid were visually observed and compared.
Specifically, 90 μL of distilled water was added to an E. tube containing 1 mg each of the deoxycholic acid-peptide conjugate and the deoxycholic acid, and dissolution was confirmed.

[4] = tested on: HSL and PLIN genes; assay: RT-PCR of lipolysis genes in adipose tissue; type: cell-based, BL/6 mice; settings: 1 and 10 μM, 72 hours
Protocol: (§3) Adipose tissue was collected from the abdomen of 9-week-old BL/6 mice, placed in a 100 mm×15 mm culture dish, and then cultured in a culture medium overnight. The adipose tissue was divided to have the same weight, transferred to a 24-well plate, and then used in the following Experimental Examples.
(§4) The adipocytes obtained in Preparation Example 1 or the adipose tissue obtained in Preparation Example 2 were treated with the deoxycholic acid-peptide conjugate of the present invention, cultured, and then recovered, and RNA was extracted with Trizol (Thermo Fisher Scientific, USA). From the extracted RNA, complementary DNA to RNA was obtained using TOPScript™ RT DryMIX (enzynomics, Korea) and then polymerase chain reaction (PCR) was performed using TOPsimple™ DryMIX-nTaq (enzynomics, Korea). Thereafter, PCR products were loaded on a 1.5% agarose gel to compare the mRNA expression levels of the growth factors.
Specifically, the adipose tissue obtained in Preparation Example 2 was treated with 1 μM and 10 μM of the deoxycholic acid-peptide conjugate and 1 μM of CL316243 (Sigma, USA) as a positive control group and cultured for 72 hours. […]

[5] = tested on: adipose tissue; assay: H&E staining, size of adipocytes in adipose tissue; type: cell-based, BL/6 mice; settings: vs control group
Protocol: as §3
In order to confirm the lipolysis effect in adipose tissue by the deoxycholic acid-peptide conjugate, H&E staining was performed on the adipose tissue obtained in Preparation Example 2 to confirm the sizes of adipocytes.
Specifically, the adipose tissue was cut, attached to a paraffin slide, and dried at 50° C. The slide attached with the dried adipose tissue was placed in Xylene 1, 2, and 3 for 5 minutes each, and the paraffin was removed. Thereafter, the slide was put into 100% ethanol for 2 minutes, and then sequentially put into 90%, 80%, and 70% ethanol to be re-hydrated. The re-hydrated slide was stained in a hematoxylin solution, washed, and then stained with Eosin Y. Thereafter, the slide was sequentially put into 90%, 80%, and 70% ethanol, and then put into Xylene 3, 2, and 1, and then mounted with a xylene-based mounting medium to prevent air bubbles from entering the tissue, and then dried. Then, the dried slide was observed under an optical microscope.

[6] = tested on: UCP1, PRDM and Cidea genes; assay: RT-PCR of thermogenesis-related genes of brown adipocytes in adipose tissue; type: cell-based, BL/6 mice; settings: 1 and 10 μM, 72 hours
Protocol: as §3, §4
(§5) Specifically, the adipose tissue obtained in Preparation Example 2 was treated with 1 μM and 10 μM of the deoxycholic acid-peptide conjugate and 1 μM of CL316,243 (Sigma, USA) as a positive control group and further cultured for 72 hours. After the cells were recovered and the polymerase chain reaction was performed by the method described in Experimental Example 4-1, the expression products were loaded on an agarose gel to confirm the mRNA expression levels of genes related to adipogenesis.

[7] = tested on: adiponectin and leptin genes; assay: RT-PCR of fat metabolism genes in adipocytes; type: cell-based; settings: 1 and 10 μM, 1, 3, 6 hours
Protocol: as §2, with “completed. […]” for “completed.”

[8] = tested on: IL-15 gene in C2C12 cells; assay: RT-PCR of IL-15 gene in muscle cells; type: cell-based, mouse; settings: 1 and 10 μM; 6 hours; C2C12 myotubes
Protocol: as §4
Specifically, C2C12 cells, which were mouse myoblasts, were inoculated into a 6-well plate at a density of 2×10^5 cells/well, and then cultured in a DMEM (10% FBS) medium for 3 days. When the cells had grown to about 70 to 80% of the plate, the medium was replaced with a differentiation medium (DMEM, 5% horse serum) and then cultured for 3 days. Thereafter, the medium was replaced with the differentiation medium (DMEM, 2% horse serum) and cultured for 4 days to induce differentiation from myoblasts to myotubes. Then, the medium was replaced with a serum-free medium and cultured for 2 hours, and treated with 1 μM and 10 μM of the deoxycholic acid-peptide conjugate for 6 hours and cultured in an environment of 37° C. and 5% CO2. […]

[9] = tested on: ACCα, FAS and PPARγ genes; assay: RT-PCR of adipogenesis genes in adipose tissue; type: cell-based, BL/6 mice; settings: 1 and 10 μM, 72 hours
Protocol: as §3, §4, §5

[10] = tested on: AMPKa1, HSL, PGC1a genes; assay: RT-PCR of lipolysis-related genes in adipocytes; type: cell-based; settings: 1 and 10 μM; 24 hours; differentiated adipocytes
Protocol: as §2, §4
Specifically, the differentiated adipocytes obtained in Preparation Example 1 were treated with 1 μM and 10 μM of the deoxycholic acid-peptide conjugate, and then cultured for 24 hours. […]

Row | Compound | glycerol release amount [1] | lipid accumulation amount [2] | solubility in water (dissolution, visual) [3] | amount of glycerol released ([1]; 1, 10, 100 μM, 48 hours, adipose tissue of high-fat diet mice, vs control group) | HSL mRNA expression [4] | PLIN mRNA expression [4] | sizes of adipocytes [5] | fat staining in adipocytes (oil red O) ([2]; day 7, positive control CL316243 or TNF-α) | Cidea mRNA expression [6] | PRDM mRNA expression [6] | UCP1 mRNA expression [6] | adiponectin mRNA expression [7] | leptin mRNA expression [7] | IL-15 mRNA expression [8] | ACCα mRNA expression [9] | FAS mRNA expression [9] | PPARγ mRNA expression [9] | AMPKa1 mRNA expression [10] | HSL mRNA expression [10] | PGC1a mRNA expression [10]
1 | Lys Phe Leu Ile Lys (KFLIK) [peptide of SEQ ID NO: 1] | 106% | 89% | – | – | – | – | – | – | – | – | – | – | – | – | – | – | – | – | – | –
2 | C[C@H](CCC(=O)O)[C@H]1CC[C@H]2[C@@H]3CC[C@@H]4C[C@H](O)CC[C@]4(C)[C@H]3C[C@H](O)[C@]12C [deoxycholic acid, 3,12-dihydroxycholan-24-oic acid] | 116% | 93% | hardly dissolved | – | – | – | – | – | – | – | – | – | – | – | – | – | – | – | – | –
3 | CCCC(NC(=O)C(CC(C)C)NC(=O)C(Cc1ccccc1)NC(=O)C(CCCCN)NC(=O)CC[C@@H](C)[C@H]1CC[C@H]2[C@@H]3CC[C@@H]4C[C@H](O)CC[C@]4(C)[C@H]3C[C@H](O)[C@]12C)C(=O)NC(CCCCN)C(=O)O (stereo partly shown) [deoxycholic acid-peptide conjugate] (Deoxycholoyl-[ξK][ξF][ξL][ξNva][ξK]-OH) | 175% | 78% | completely dissolved | increased in a concentration-dependent manner | increased in a concentration dependent manner | increased in a concentration dependent manner | decreased | reduced at the same level as the positive control group | increased | increased | increased | increased | increased | increased | decreased | decreased | decreased | increased | increased | increased
